Consider 11 molecules from PubChem BioAssay (NCI).

Structures are written as SMILES.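 Test compounds were applied to cells in 96-well plates for 48 hours at 5 doses. Definition used: TGI = concentration required for complete inhibition of growth.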

Among the test systems are SK-MEL-2 melanoma; KM12 colon; MDA-MB-435; M14 melanoma; DU-145 prostate; BT-549 breast; SNB-19 CNS; SF-268 CNS; MDA-N; MDA-MB-231 breast; 786-0 renal; SR leukemia.
What all share (assay): NCI-60 cell line screen, 48 h

Take `CN(C)c1ccc(/C=C/C=C(/C#N)c2ccccc2)cc1`: the TGI was more than 93 µM in the test on SK-MEL-2 melanoma; 34.1 µM with KM12 colon; 6.19 µM in the test on MDA-MB-435; more than 85.1 µM in the test on M14 melanoma; more than 100 µM in the test on DU-145 prostate; more than 100 µM in the test with BT-549 breast. For the same molecule, the TGI in the test with SNB-19 CNS is more than 88.1 µM; in the test with SF-268 CNS, more than 100 µM; in the test with MDA-N it was 5.28 µM; in the test on MDA-MB-231 breast, more than 93.8 µM; in the test on 786-0 renal it was more than 62.7 µM; with SR leukemia it was more than 39.7 µM.
Consider `CC(C)C1OC(=O)/C=C/C=C/C=C/C=C/C=C/CC(O)CC(O)CC(O)CC(O)CC(O)CC(O)CC(O)CC(O)/C=C/C1C` (configuration not stated), for which the TGI in the test on SK-MEL-2 melanoma, in the test on KM12 colon, in the test on MDA-MB-435, with M14 melanoma, in the test on DU-145 prostate and with BT-549 breast was more than 100 µM throughout. Also, the TGI in the test with SNB-19 CNS, in the test on SF-268 CNS, in the test on MDA-N, with MDA-MB-231 breast, in the test on 786-0 renal and with SR leukemia was more than 100 µM in each case.
On to `COCCOCCOC1=C(Cl)C(=O)c2c(O)ccc(O)c2C1=O`, for which the TGI with SK-MEL-2 melanoma worked out at 4.86 µM; with KM12 colon it was 31.9 µM; in the test on MDA-MB-435, 3.83 µM; in the test on M14 melanoma it was 3.29 µM; with DU-145 prostate, 22.4 µM; with BT-549 breast, 4.01 µM. Further, the TGI in the test on SNB-19 CNS stood at 27.1 µM; in the test with SF-268 CNS, 7.26 µM; with MDA-N it was 9.63 µM; in the test on MDA-MB-231 breast, 4.12 µM; with 786-0 renal, 2.61 µM; in the test on SR leukemia, 3.04 µM.
As to `O=C(N/N=C\c1ccc2ccccc2c1)Nc1ccc([N+](=O)[O-])cc1`, the TGI in the test on SK-MEL-2 melanoma was more than 73.5 µM; in the test with KM12 colon, more than 100 µM; with MDA-MB-435 it was more than 100 µM; in the test on M14 melanoma it was more than 95.8 µM; in the test on DU-145 prostate, more than 65 µM; with BT-549 breast it was more than 77.3 µM. Also, the TGI is more than 100 µM in the test with SNB-19 CNS; more than 89.9 µM in the test on SF-268 CNS; more than 70.6 µM with MDA-N; more than 100 µM in the test with MDA-MB-231 breast; more than 62.8 µM in the test on 786-0 renal; more than 100 µM in the test on SR leukemia.
As to `CCC(CCCC[C@@H]1CC[C@H]2CC(=O)C[C@@H]12)OC` (some centres not stated), the TGI in the test on SK-MEL-2 melanoma, in the test with KM12 colon, in the test on MDA-MB-435, in the test with M14 melanoma, in the test on DU-145 prostate and in the test with BT-549 breast was more than 100 µM each time. Besides, the TGI in the test on SNB-19 CNS, in the test on SF-268 CNS, in the test with MDA-N, in the test with MDA-MB-231 breast, in the test with 786-0 renal and with SR leukemia was more than 100 µM in each case.
As for `Cc1ccc(N=C2C(=O)C3=C(OC(C)(C)CC3)c3ccccc32)cc1`, the TGI in the test with SK-MEL-2 melanoma amounted to 3.31 µM; in the test on KM12 colon, 4.01 µM; in the test with MDA-MB-435 it was 0.346 µM; with M14 melanoma it was 1.59 µM; in the test on DU-145 prostate, 2.59 µM; with BT-549 breast it was 3.46 µM. Also, the TGI is 2.26 µM with SNB-19 CNS; 6.37 µM in the test with SF-268 CNS; 0.335 µM with MDA-N; 4.1 µM in the test on MDA-MB-231 breast; 3.18 µM with 786-0 renal; 1.6 µM in the test on SR leukemia.
On to `N#Cc1ccc(OCc2nc3cc(C(F)(F)F)ccc3nc2-c2ccccc2)cc1`, for which the TGI in the test on SK-MEL-2 melanoma, with KM12 colon, with MDA-MB-435, in the test with M14 melanoma, with DU-145 prostate and in the test on BT-549 breast was more than 100 µM throughout. The TGI in the test with SNB-19 CNS, in the test on SF-268 CNS, with MDA-N, in the test with MDA-MB-231 breast, in the test with 786-0 renal and in the test with SR leukemia was more than 100 µM throughout.
`COc1cccc(NC(=O)CC(=O)N2N=C(C)C(N=Nc3ccc(S(=O)(=O)c4ccc(N=NC5C(=O)N(C(=O)CC(=O)Nc6cccc(OC)c6)N=C5C)cc4)cc3)C2=O)c1` (configuration not stated): the TGI with SK-MEL-2 melanoma, in the test on KM12 colon, in the test with MDA-MB-435, in the test with M14 melanoma, in the test with DU-145 prostate and in the test with BT-549 breast was more than 100 µM each time. The TGI in the test with SNB-19 CNS, with SF-268 CNS, in the test with MDA-N, with MDA-MB-231 breast, with 786-0 renal and in the test with SR leukemia was more than 100 µM in each case.
With `COC(=O)/C=c1/c2ccccc2n2nc3ccccc3c12`, the TGI in the test with SK-MEL-2 melanoma, in the test with KM12 colon, in the test on MDA-MB-435, with M14 melanoma, in the test with DU-145 prostate and with BT-549 breast was more than 100 µM in each case. Further, the TGI was more than 100 µM with SNB-19 CNS; more than 100 µM in the test with SF-268 CNS; more than 100 µM in the test with MDA-N; 91.3 µM in the test with MDA-MB-231 breast; more than 100 µM in the test on 786-0 renal; 17.1 µM with SR leukemia.
For the molecule `S=c1[nH]c(=S)c2cc(Sc3ccc4[nH]c(=S)[nH]c(=S)c4c3)ccc2[nH]1`, the TGI in the test with SK-MEL-2 melanoma is more than 100 µM; in the test on KM12 colon it was 62.5 µM; in the test on MDA-MB-435, more than 100 µM; with M14 melanoma, more than 100 µM; with DU-145 prostate, more than 100 µM; in the test on BT-549 breast, 73.2 µM. Besides, the TGI in the test with SNB-19 CNS is 78.2 µM; in the test with SF-268 CNS, 68 µM; in the test on MDA-N it was more than 100 µM; in the test with MDA-MB-231 breast, more than 100 µM; with 786-0 renal it was 40 µM; with SR leukemia it was 51.2 µM.
As to `COc1ccc(N=C(Nc2ccc(OC)cc2)C(=Nc2ccc(OC)cc2)Nc2ccc(OC)cc2)cc1`, the TGI in the test on SK-MEL-2 melanoma, in the test with KM12 colon, with MDA-MB-435, in the test with M14 melanoma, in the test with DU-145 prostate and in the test on BT-549 breast was more than 100 µM throughout. For the same molecule, the TGI in the test on SNB-19 CNS, in the test on SF-268 CNS, in the test with MDA-N, in the test with MDA-MB-231 breast, with 786-0 renal and with SR leukemia was more than 100 µM in each case.
